Read-outs that look alike come from different tables or passages of the source.
Tests used:
cholesterol oxidase [1] = assay: Activation of cholesterol oxidase by surface-active compounds; format: biochemical; settings: for activation of cholesterol oxidase: result in words; for appropriate concentration range of surface-active compound for activation: too small an amount gives no activation, too large denatures the enzyme
Description: In addition, other surface-active substances with lipophilic and hydrophilic properties which contain at least one hydroxyl group, can also be used. Examples of such compounds include ethanol, butyl-diglycol and hexyleneglycol.
The appropriate concentration range, as well as the optimum concentration, can be experimentally determined for all appropriate surface-active agents.

cholesterol oxidase [2] = assay: Determination of cholesterol in serum with detergent-free cholesterol oxidase, extinction at 240 nm; format: biochemical; settings: 0.4% in 0.5 M potassium phosphate buffer pH 7.5, 0.1 U enzyme; without surface-active agent 15 minutes were required
Protocol: 0.05 ml. of serum were added to 10 ml. 0.5 M potassium phosphate buffer of pH 7.5 which contained 0.4% hydroxypolyethoxydodecane. The extinction (E1) was read off at 240 nm in a suitable spectrophotometer and the reaction started with 0.02 ml. (0.1 U) of storage-stable cholesterol oxidase, freed from traces of detergent, in 1 M aqueous ammonium sulfate solution. After 3 minutes, the extinction (E2) was read off. The concentration of the cholestenone formed and thus of the cholesterol was given by the difference between the first and second readings, having regard to the molar extinction coefficients for […] at 240 nm. The measurement of a typical sample gave 62 mg.% free cholesterol and 167 mg.% total cholesterol (after saponification).
A comparative determination but without the addition of the surface-active agent required a reaction time of 15 minutes.

cholesterol oxidase [3] = settings: 1 M ammonium sulfate, 33° C.
Protocol: The experiments were carried out with an octyl-phenol-ethylene oxide adduct.

## OC1CCCCC1 [cyclohexanol]
Cholesterol oxidase [1]
  activation of cholesterol oxidase: no activation

## OCCO [ethylene glycol]
Cholesterol oxidase [1]
  activation of cholesterol oxidase: no activation

## OCC(O)CO [glycerol]
Cholesterol oxidase [1]
  activation of cholesterol oxidase: no activation

## CO [methanol]
Cholesterol oxidase [1]
  activation of cholesterol oxidase: no activation

## C[C@H](CCC(=O)O)[C@H]1CC[C@H]2[C@@H]3CC[C@@H]4C[C@H](O)CC[C@]4(C)[C@H]3C[C@H](O)[C@]12C [sodium desoxycholate]
Cholesterol oxidase [1]
  appropriate concentration range of surface-active compound for activation: 0.03 to 0.05 wt.%

## desoxycholates
Cholesterol oxidase [1]
  activation of cholesterol oxidase: Similarly good results

## hydroxypolyethoxydodecane
Cholesterol oxidase [1]
  appropriate concentration range of surface-active compound for activation: 0.15 to 0.6 wt.%
Cholesterol oxidase [2]
  reaction time of the cholesterol determination: 3 min

## octyl-phenol-ethylene oxide adduct
Cholesterol oxidase [3]; detergent 0.02%, storage period 10 days
  Activity of cholesterol oxidase in %, referred to freshly prepared enzyme: 60%
Cholesterol oxidase [3]; detergent 0.02%, storage period 22 days
  Activity of cholesterol oxidase in %, referred to freshly prepared enzyme: 40%
Cholesterol oxidase [3]; detergent 0.05%, storage period 10 days
  Activity of cholesterol oxidase in %, referred to freshly prepared enzyme: 7%
Cholesterol oxidase [3]; detergent 0.05%, storage period 22 days
  Activity of cholesterol oxidase in %, referred to freshly prepared enzyme: 1%
Cholesterol oxidase [3]; detergent 0.6%, storage period 10 days
  Activity of cholesterol oxidase in %, referred to freshly prepared enzyme: 3%
Cholesterol oxidase [3]; detergent 0.6%, storage period 22 days
  Activity of cholesterol oxidase in %, referred to freshly prepared enzyme: 1%
Cholesterol oxidase [3]; detergent amount not printed (column between 0.05% and 0.6%), storage period 10 days
  Activity of cholesterol oxidase in %, referred to freshly prepared enzyme: 7%
Cholesterol oxidase [3]; detergent amount not printed (column between 0.05% and 0.6%), storage period 22 days
  Activity of cholesterol oxidase in %, referred to freshly prepared enzyme: 1%
Cholesterol oxidase [1]
  appropriate concentration range of surface-active compound for activation: 0.03 to 0.1 wt.%

## polyoxyethylene derivatives of sorbitol anhydrides
Cholesterol oxidase [1]
  appropriate concentration range of surface-active compound for activation: 0.15 to 0.6 wt.%

Source: patent US4164448A, “Activation of cholesterol oxidase for cholesterol assay” (Boehringer Mannheim GmbH, priority 1973, dated 1979)
